Assay results as given in patent publication US20020064770A1, “Binding compounds and methods for identifying binding compounds” (priority 2000, published 2002).

What was measured:
CCR5 [1] = biological target: T1, CCR5 (Homo sapiens, UniProt P51681); conditions: CCR5-expressing Chinese hamster ovary cells; cited from earlier work
R5 HIV-1 = conditions: clinical isolates and a laboratory strain; peripheral blood mononuclear cells; cited from earlier work
T-cell line-tropic HIV-1 = conditions: cited from earlier work
CCR5 [2] = biological target: T1, CCR5; set-up: endogenous in cells; host or cells: monocytes; conditions: cited from earlier work
M-tropic HIV-1 strains = conditions: cited from earlier work
CCR5 [3] = biological target: T1, CCR5; set-up: endogenous in cells; host or cells: monocytes; conditions: monocytes; cited from earlier work
CCR5 [4] = test: Binding affinity of identified peptide ligands for CCR5 (displacement of [125I]-MIP-1β); set-up: species or system human
Excerpt: In order to determine those ligands that had the highest affinity to the target receptor, generally, over 200 peptide libraries were screened to determine each library's respective inhibition binding. […] In additional aspects of the invention, once preferred amino acid residues are identified due to high preference values by CCR5 at the degenerate positions of the library, specific peptides are synthesized by the same methods as employed for library synthesis. In one embodiment of the invention, a high preference value is greater than 1. The value is determined by subtracting the control value from the sample value and dividing by the reference value. In a preferred embodiment of the invention, the preference value is greater than 1.2. In a highly preferred embodiment of the invention, the preference value is greater than 2. After synthesis of the identified peptide sequence, the peptide is purified by, for example, High Performance Liquid Chromatography (“HPLC”) and compositions are confirmed by Matrix-Assisted Laser Desorption Ionization-Time of Flight Mass Spectrometer (“MALDI-TOF MS”) and Edman Sequencing. Generally, relative affinities may be measured by modifying the radiolabel binding assay used in receptor purification.
Relative affinities were measured by modifying the radiolabel binding assay used in receptor purification.

PDZ = conditions: binding domain PDZ; cited from earlier work
SH2 (src) = biological target: T2, SH2 (src) (Homo sapiens, UniProt P12931); conditions: binding domain SH2 (src); cited from earlier work
T2 construct: SH2 (src)

14-3-3 = conditions: binding domain 14-3-3; cited from earlier work
CCR5 [5] = conditions: value obtained by Receptor Biology; applicant's membrane preparations comparable; read-out: Kd for MIP1-β binding; cited from earlier work

T1 sequence (P51681 whole entry): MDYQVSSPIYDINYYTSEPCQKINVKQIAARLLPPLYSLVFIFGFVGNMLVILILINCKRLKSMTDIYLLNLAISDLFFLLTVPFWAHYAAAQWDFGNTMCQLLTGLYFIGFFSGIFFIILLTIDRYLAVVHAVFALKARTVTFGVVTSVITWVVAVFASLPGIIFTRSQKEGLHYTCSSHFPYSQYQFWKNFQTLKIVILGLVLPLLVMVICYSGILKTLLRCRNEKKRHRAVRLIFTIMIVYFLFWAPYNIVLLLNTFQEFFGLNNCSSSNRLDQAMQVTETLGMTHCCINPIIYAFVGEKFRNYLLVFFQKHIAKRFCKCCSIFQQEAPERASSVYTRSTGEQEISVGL

Cc1ccc(-c2ccc3c(c2)C=C(C(=O)Nc2ccc(C[N+](C)(C)C4CCOCC4)cc2)CCC3)cc1.[Cl-] [TAK-779]
antagonism of RANTES binding to CCR5 (CCR5 [1]): antagonizes
concentration inhibiting replication of R5 HIV-1 (R5 HIV-1): 1.6 to 3.7 nM
activity against T-cell line-tropic HIV-1 (T-cell line-tropic HIV-1): inactive
concentration blocking CCR5-mediated Ca2+ signaling (CCR5 [2]): nanomolar

Aminooxypentane (AOP)-RANTES[2-68]
inhibition of infection of macrophages (M-tropic HIV-1 strains): potently inhibits
antagonist potency on CCR5 function (CCR5 [3]): subnanomolar

K-K-K-A-R-S-L-I-W-R-P-A-K-A-K-K-K (KKKARSLIWRPAKAKKK)
affinity and action on CCR5 (CCR5 [4]): enhanced affinity and action

KKKKETDV
Kd (PDZ): 42 nM

M-A-R-S-L-I-W-R-P-A-K-A-K-K-A (MARSLIWRPAKAKKA)
affinity and action on CCR5 (CCR5 [4]): enhanced affinity and action

PYBEIY
Kd (SH2 (src)): 100 nM

RLSHpSLP
Kd (14-3-3): 55.7 nM

cyclo(M-Y-A-T-R-W-K-N) (MYATRWKN; cyclic)
affinity and action on CCR5 (CCR5 [4]): enhanced affinity and action

B1: MIP-1β: natural CCR5 ligand, used as [125I] radioligand (protein, UniProt P13236 24-92, looked up)
C-C motif chemokine 4: APMGSDPPTACCFSYTARKLPRNFVVDYYETSSLCSQPAVVFQTKRSKQVCADPSESWVQEYVYDLELN
modifications: ends and bridges not checked; also: [125I] radiolabel
Kd (CCR5 [5]): < 1 nM
